Reference: patent US20240299505A1, “COMPOSITION FOR IMPROVING, PREVENTING OR TREATING INFLAMMATORY BOWEL DISEASE COMPRISING NAMPT-DERIVED PEPTIDE AS ACTIVE INGREDIENT” (Industry-University Cooperation Foundation Hanyang …, priority 2023, published 2024)

Legend:
[1] = tested on: DSS-induced acute colitis; assay: DSS-induced acute colitis mouse model (Lenti-shNS or Lenti-shITG transduced); assay type: in vivo, C57BL/6 mice; details: Lenti-shNS-transduced mice
Protocol: FIG. 8 confirms an effect of rCT-NAMPT in mice with DSS-induced acute colitis. Specifically, (A) an experimental plan for an acute colitis model treated with rCT-NAMPT (50 μg/kg) and 3% DSS after introduction of Lenti-shNS or Lenti-shITG virus (left) and the survival rates of mice monitored for 12 days (right). Mortality was measured with n=15 mice per group. Statistical differences between rVehicle treated animals were recorded (log-rank test). […] (B) confirms a change in body weight of the experimental animals during an experiment period in (A) above (n=8). (C) is a colitis score result of the experimental animals in (A) above. […] (H) Results of hematoxylin and eosin (H&E) staining of the colon (left) (n=10): Representative radiohistopathology scores were evaluated using rVehicle, rCT, or rCT-NAMPT in 3% DSS-treated mice as illustrated in techniques (Materials and Methods). Statistical significance was evaluated using a Student's t-test using Bonferroni correction (***p<0.001) in comparison to rVehicle;
(§1) Dextran sodium sulfate (DSS)-induced acute or chronic colitis mouse models were constructed using 6-week-old C57BL/6 female mice (Samtako, Osan, Korea). […] The survival of mice was tracked for 12 days, and mortality was measured for n=15 mice per group. […] The survival of mice was tracked for 9 weeks, and mortality was measured for n=15 mice per group. […]

[2] = tested on: DSS-induced chronic colitis; assay: DSS-induced chronic colitis mouse model; assay type: in vivo, C57BL/6 mice; details: 50 μg/kg i.p.
Protocol: FIG. 10 confirms an effect of rCT-NAMPT in mice with DSS-induced chronic colitis. Specifically, (A) Scheme of the chronic colitis model treated with rCT-NAMPT (50 μg/kg) and 3% DSS. (B) The survival of mice was tracked for 9 weeks, and mortality was calculated for n=15 mice per group. Statistical differences between rVehicle treated animals were recorded (log-rank test). […] (C) Weight loss of rVehicle, rCT or rCT-NAMPT treatment in mice was confirmed (n=15). (D) Image (upper) and length (lower) of colon in 3% DSS-induced chronic colitis mice with rVehicle, rCT or rCT-NAMPT. (E) H&E staining of the colon (left) (n=8): a representative image. H&E staining was used to evaluate histopathology scores in 3% DSS-induced chronic colitis mice treated with rVehicle, rCT, or rCT-NAMPT. […]
as §1
Body weight, degree of bloody stool, and stool concentration were measured every day during the colitis induction to obtain the clinical score. The clinical score was determined by two trained investigators who were not provided with information about the experiment. […]

[3] = tested on: colonic tissues; details: mice with acute colitis, intraperitoneal injection, Cy5.5 conjugate
Protocol: The number of ITGA6+ or ITGB1+ cells was analyzed by FACS.
Mice were intravenously injected with a lentivirus expressing nonspecific shRNA (shNS) or shRNA specific for ITGA6 (sh ITGA6) or ITGB1 (shITGB1) 2 times and then orally administered with DSS (Acute or chronic Colitis) and rCT-NAMPT, and then experiments were performed.
Next, to evaluate the specificity of rCT-NAMPT, ITGA6- or ITGB1-knockdown mice were generated through sh-Lentiviral transduction. The mice were treated with DSS and administered rCT-NAMPT/Cy5.5 via intraperitoneal injection on day 6.

Question: With TWYKIAFQRNRK [rCT] as the sequence, how does the “survival rate / mortality” value ([1]; 3% DSS, 50 μg/kg i.p. 8 times, 12 days) read?
Answer: The value was “Neither rVehicle or rCT significantly affected mortality”.

Question: And the “colon histology (H&E staining)” value ([1]; DSS)?
Answer: The value was “disrupted by DSS”.

Question: And the body weights [2]?
Answer: Its body weights is “Body weights fluctuated”.

Question: What about the “tissue targeting (colon versus other organs)” value [3] of the same sequence?
Answer: The value was “specifically targeted colonic tissues in mice with acute colitis, but not in other organs”.
